Experimental data as given in ChEMBL document CHEMBL1909046, “DrugMatrix in vitro pharmacology data”.

Experiments:
Cytochrome P450 1A2 = biological target: T1, Cytochrome P450 1A2 (Homo sapiens, UniProt P05177); details: bti-tn-5b1-4; also: in other assays of this panel Not Active means under 50% inhibition at 10 µM
T1 sequence (P05177 whole entry): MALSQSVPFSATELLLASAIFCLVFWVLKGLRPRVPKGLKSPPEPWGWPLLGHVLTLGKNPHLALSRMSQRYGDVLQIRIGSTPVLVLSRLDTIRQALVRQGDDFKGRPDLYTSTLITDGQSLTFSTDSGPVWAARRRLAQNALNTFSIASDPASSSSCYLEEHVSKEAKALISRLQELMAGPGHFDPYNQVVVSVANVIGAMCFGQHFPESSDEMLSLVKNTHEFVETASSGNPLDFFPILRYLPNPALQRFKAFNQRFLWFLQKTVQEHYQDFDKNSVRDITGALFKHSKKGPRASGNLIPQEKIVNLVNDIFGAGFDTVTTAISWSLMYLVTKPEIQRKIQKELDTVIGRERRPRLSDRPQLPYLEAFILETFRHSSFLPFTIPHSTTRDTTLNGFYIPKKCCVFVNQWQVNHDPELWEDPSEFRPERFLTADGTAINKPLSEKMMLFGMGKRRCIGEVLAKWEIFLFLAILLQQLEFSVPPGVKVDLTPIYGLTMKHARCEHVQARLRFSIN

Cytochrome P450 2D6 = Cytochrome P450 2D6 (Homo sapiens, UniProt P10635); details: bti-tn-5b1-4; also: in other assays of this panel Not Active means under 50% inhibition at 10 µM
Sequence of Cytochrome P450 2D6 (P10635 whole entry): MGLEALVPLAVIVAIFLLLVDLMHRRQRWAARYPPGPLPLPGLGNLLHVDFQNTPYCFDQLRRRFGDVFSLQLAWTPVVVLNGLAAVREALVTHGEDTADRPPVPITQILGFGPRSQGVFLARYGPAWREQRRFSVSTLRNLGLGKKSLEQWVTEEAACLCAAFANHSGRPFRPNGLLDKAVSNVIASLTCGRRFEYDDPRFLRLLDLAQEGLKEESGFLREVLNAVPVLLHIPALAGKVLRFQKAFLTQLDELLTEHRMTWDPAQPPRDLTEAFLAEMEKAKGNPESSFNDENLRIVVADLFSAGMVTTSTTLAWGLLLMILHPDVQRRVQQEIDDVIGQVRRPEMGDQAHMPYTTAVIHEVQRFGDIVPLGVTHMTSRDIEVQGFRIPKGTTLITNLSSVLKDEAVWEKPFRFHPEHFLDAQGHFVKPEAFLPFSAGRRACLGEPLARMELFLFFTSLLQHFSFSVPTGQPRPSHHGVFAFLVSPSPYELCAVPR

Cytochrome P450 2C9 = Cytochrome P450 2C9 (Homo sapiens, UniProt P11712); details: bti-tn-5b1-4; also: in other assays of this panel Not Active means under 50% inhibition at 10 µM
Sequence of Cytochrome P450 2C9 (P11712 whole entry): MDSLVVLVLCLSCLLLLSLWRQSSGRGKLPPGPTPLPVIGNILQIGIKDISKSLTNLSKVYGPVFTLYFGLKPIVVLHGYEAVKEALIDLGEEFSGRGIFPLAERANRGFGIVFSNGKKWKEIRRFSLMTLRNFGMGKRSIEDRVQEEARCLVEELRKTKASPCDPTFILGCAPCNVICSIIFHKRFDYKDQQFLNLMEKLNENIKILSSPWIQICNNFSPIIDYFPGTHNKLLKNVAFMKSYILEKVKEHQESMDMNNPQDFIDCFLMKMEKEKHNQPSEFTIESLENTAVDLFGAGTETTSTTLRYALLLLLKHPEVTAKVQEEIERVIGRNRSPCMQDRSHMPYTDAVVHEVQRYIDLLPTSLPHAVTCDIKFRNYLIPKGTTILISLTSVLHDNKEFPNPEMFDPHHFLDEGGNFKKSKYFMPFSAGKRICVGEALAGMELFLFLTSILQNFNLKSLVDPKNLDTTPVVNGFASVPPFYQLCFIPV

[1] = biological target: T2, Alpha-1D adrenergic receptor (Homo sapiens, UniProt P25100); format: cell membranes, HEK293, Membrane; details: for Ki: read-out: Ki; as to all read-outs here: in other assays of this panel Not Active means under 50% inhibition at 10 µM
T2 sequence (P25100 whole entry): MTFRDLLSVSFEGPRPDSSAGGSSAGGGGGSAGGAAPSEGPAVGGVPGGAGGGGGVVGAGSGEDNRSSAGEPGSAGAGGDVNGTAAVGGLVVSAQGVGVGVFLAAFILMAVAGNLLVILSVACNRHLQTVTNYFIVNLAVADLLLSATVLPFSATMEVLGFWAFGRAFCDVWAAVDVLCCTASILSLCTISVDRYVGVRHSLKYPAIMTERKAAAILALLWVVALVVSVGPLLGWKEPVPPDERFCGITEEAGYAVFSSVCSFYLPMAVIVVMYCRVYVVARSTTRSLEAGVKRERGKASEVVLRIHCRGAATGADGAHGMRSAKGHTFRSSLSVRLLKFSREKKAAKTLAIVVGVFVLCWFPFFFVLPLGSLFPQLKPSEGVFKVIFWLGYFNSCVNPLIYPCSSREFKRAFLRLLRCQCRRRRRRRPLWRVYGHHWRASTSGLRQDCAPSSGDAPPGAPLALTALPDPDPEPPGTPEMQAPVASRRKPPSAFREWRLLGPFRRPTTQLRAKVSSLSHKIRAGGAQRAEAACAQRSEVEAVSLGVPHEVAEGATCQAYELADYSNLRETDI

[2] = biological target: Voltage-gated inwardly rectifying potassium channel KCNH2 (Homo sapiens, UniProt Q12809); details: hek293; also: in other assays of this panel Not Active means under 50% inhibition at 10 µM
Sequence of Voltage-gated inwardly rectifying potassium channel KCNH2 (Q12809 whole entry): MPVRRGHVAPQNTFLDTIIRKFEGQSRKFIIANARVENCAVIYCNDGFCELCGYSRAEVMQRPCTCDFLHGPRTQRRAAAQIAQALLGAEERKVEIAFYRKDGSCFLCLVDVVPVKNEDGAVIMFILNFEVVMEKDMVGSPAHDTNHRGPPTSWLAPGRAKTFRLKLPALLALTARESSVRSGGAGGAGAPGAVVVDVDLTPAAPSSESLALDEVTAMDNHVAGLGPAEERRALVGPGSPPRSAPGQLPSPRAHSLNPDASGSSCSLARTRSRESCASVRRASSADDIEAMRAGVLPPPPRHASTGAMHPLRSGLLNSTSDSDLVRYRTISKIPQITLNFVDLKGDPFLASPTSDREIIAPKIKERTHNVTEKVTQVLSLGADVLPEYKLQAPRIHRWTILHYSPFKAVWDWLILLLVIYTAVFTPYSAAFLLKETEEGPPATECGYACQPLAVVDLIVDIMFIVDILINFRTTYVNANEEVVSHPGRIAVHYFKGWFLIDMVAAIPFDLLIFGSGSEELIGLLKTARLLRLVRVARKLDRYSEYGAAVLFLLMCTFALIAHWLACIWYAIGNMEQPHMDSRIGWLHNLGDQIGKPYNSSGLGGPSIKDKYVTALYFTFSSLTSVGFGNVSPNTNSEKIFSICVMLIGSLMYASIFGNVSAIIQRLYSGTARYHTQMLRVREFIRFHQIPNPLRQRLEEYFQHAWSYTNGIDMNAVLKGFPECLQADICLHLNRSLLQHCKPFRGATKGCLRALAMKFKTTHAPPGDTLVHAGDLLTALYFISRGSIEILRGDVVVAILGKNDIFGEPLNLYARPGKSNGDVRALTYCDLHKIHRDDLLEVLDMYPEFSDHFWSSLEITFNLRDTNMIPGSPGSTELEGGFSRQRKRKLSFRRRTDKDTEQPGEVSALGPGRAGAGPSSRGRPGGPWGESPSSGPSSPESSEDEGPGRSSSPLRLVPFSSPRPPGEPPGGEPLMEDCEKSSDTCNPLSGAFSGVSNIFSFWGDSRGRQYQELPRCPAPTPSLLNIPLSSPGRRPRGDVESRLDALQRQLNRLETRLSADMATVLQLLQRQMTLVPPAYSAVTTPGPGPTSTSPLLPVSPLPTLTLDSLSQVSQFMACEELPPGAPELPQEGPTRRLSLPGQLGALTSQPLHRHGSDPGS

[3] = biological target: Sodium-dependent noradrenaline transporter (Homo sapiens, UniProt P23975); assay: DRUGMATRIX: Norepinephrine Transporter radioligand binding (ligand: [125I] RTI-55); format: cell membranes, MDCK, Membrane; details: Not Active = under 50% inhibition at 10 µM
Sequence of Sodium-dependent noradrenaline transporter (P23975 whole entry): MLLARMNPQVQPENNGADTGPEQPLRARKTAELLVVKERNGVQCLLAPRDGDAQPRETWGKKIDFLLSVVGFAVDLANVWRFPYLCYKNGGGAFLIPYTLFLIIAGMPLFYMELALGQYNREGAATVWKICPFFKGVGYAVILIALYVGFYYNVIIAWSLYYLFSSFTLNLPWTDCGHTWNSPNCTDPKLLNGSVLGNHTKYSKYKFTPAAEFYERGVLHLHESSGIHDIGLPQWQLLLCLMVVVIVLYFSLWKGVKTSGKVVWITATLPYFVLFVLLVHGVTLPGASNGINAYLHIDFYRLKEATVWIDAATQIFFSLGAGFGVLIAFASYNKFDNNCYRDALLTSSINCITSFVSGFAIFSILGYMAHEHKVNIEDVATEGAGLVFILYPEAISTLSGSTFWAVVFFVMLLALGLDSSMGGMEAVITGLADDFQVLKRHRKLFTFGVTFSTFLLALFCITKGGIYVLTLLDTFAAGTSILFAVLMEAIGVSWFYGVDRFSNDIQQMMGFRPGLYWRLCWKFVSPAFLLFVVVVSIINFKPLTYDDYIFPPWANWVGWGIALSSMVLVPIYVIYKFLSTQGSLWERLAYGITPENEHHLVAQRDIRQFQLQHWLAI

Cytochrome P450 3A4 = Cytochrome P450 3A4 (Homo sapiens, UniProt P08684); details: bti-tn-5b1-4; also: in other assays of this panel Not Active means under 50% inhibition at 10 µM
Sequence of Cytochrome P450 3A4 (P08684 whole entry): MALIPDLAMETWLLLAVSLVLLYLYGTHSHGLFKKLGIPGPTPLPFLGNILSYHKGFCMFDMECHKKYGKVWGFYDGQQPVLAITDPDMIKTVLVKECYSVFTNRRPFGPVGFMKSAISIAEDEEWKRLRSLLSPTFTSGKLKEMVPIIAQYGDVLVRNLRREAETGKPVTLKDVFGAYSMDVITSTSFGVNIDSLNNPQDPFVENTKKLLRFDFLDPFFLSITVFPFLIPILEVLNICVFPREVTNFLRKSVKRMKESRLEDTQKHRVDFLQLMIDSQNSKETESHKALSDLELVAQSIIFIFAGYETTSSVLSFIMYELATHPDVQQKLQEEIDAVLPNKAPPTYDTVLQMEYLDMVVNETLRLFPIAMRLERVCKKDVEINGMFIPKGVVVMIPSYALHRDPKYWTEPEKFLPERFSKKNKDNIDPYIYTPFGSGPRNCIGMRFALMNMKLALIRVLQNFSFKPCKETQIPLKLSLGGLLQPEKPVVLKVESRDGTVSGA

Glucocorticoid receptor = biological target: T3, Glucocorticoid receptor (Homo sapiens, UniProt P04150); details: hela s3; also: in other assays of this panel Not Active means under 50% inhibition at 10 µM
T3 sequence (P04150 whole entry): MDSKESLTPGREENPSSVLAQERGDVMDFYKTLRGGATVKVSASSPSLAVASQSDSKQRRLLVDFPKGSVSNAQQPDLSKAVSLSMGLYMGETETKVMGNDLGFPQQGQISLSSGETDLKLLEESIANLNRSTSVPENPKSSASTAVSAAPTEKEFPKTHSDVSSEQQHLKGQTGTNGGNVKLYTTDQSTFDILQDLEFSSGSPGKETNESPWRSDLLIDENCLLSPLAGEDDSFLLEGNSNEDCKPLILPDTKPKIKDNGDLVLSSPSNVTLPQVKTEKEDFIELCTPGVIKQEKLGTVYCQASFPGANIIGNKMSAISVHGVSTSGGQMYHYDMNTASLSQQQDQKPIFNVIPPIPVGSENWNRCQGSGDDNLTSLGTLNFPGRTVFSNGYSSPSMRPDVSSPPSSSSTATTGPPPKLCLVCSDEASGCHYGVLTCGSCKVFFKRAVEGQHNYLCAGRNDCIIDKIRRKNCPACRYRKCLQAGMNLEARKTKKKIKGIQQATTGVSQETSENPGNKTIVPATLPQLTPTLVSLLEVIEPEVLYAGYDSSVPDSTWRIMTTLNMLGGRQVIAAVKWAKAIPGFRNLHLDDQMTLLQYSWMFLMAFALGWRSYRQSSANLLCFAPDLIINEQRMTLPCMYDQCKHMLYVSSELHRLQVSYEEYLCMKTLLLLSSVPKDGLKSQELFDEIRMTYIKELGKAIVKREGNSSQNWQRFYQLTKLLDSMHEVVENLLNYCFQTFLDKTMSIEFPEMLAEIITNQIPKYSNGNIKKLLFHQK

Estrogen receptor beta = Estrogen receptor beta (Homo sapiens, UniProt Q92731); details: sf9; also: in other assays of this panel Not Active means under 50% inhibition at 10 µM
Sequence of Estrogen receptor beta (Q92731 whole entry): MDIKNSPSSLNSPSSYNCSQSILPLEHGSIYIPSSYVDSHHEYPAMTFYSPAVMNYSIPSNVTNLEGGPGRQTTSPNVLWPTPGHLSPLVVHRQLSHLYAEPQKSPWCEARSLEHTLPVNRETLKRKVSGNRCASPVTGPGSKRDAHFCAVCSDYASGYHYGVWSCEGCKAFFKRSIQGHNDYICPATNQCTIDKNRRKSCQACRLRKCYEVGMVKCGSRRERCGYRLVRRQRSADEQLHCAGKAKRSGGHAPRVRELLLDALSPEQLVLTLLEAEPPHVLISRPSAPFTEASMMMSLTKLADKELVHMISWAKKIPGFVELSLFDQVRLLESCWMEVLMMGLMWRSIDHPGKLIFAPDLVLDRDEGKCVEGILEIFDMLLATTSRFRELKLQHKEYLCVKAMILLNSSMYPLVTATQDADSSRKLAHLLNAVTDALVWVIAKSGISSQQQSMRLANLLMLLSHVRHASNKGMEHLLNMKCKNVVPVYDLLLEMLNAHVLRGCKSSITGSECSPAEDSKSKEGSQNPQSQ

Row | Structure (SMILES) | IC50 (Cytochrome P450 1A2) | Ki (Cytochrome P450 1A2) | IC50 (Cytochrome P450 2D6) | Ki (Cytochrome P450 2D6) | IC50 (Cytochrome P450 2C9) | Ki (Cytochrome P450 2C9) | IC50 ([1]; hek293) | IC50 [2] | Ki [2] | IC50 ([3]; mdck) | IC50 ([1]; read-out: IC50) [nM] | Ki [1] [nM] | IC50 (Cytochrome P450 3A4) | Ki (Cytochrome P450 3A4) | IC50 (Glucocorticoid receptor) | IC50 (Estrogen receptor beta) | IC50 ([3]; read-out: IC50) [nM] | Ki ([3]; read-out: Ki) [nM]
1 | CC(C)(C)NC(=O)[C@@H]1CN(Cc2cccnc2)CCN1C[C@@H](O)C[C@@H](Cc1ccccc1)C(=O)N[C@H]1c2ccccc2C[C@H]1O.O | Not Active | Not Active | Not Active | Not Active | Not Active | Not Active | Not Active | Not Active | Not Active | Not Active | – | – | – | – | – | – | – | –
2 | COc1ccc(CCN2CCC(Nc3nc4ccccc4n3Cc3ccc(F)cc3)CC2)cc1 [ASTEMIZOLE] | Not Active | Not Active | Not Active | Not Active | Not Active | Not Active | – | – | – | – | 769 | 378 | Not Active | Not Active | Not Active | – | – | –
3 | CN(C)CCCN1c2ccccc2CCc2ccc(Cl)cc21 [CLOMIPRAMINE] | Not Active | Not Active | – | – | Not Active | Not Active | – | Not Active | Not Active | – | 180 | 88 | Not Active | Not Active | Not Active | – | – | –
4 | O=C(CCCN1CCC(O)(c2ccc(Cl)cc2)CC1)c1ccc(F)cc1 [HALOPERIDOL] | Not Active | Not Active | Not Active | Not Active | Not Active | Not Active | – | Not Active | Not Active | – | – | – | Not Active | Not Active | Not Active | Not Active | – | –
5 | Nc1nnc(-c2cccc(Cl)c2Cl)c(N)n1 [LAMOTRIGINE] | Not Active | Not Active | Not Active | Not Active | Not Active | Not Active | Not Active | – | – | – | – | – | – | – | – | Not Active | – | –
6 | NCCCC[C@H](N[C@@H](CCc1ccccc1)C(=O)O)C(=O)N1CCC[C@H]1C(=O)O [LISINOPRIL ANHYDROUS] | – | – | Not Active | Not Active | Not Active | Not Active | Not Active | – | – | Not Active | – | – | – | – | Not Active | – | – | –
7 | O=C1c2c(O)ccc(O)c2C(=O)c2c(NCCNCCO)ccc(NCCNCCO)c21 [MITOXANTRONE] | – | – | – | – | – | – | Not Active | – | – | – | – | – | – | – | Not Active | Not Active | 4990 | 4950
8 | NNc1ccccc1 [PHENYLHYDRAZINE] | – | – | – | – | – | – | Not Active | Not Active | Not Active | Not Active | – | – | – | – | – | Not Active | – | –
9 | NC(=O)c1ncn([C@@H]2O[C@H](CO)[C@@H](O)[C@H]2O)n1 [RIBAVIRIN] | Not Active | Not Active | Not Active | Not Active | – | – | Not Active | Not Active | Not Active | Not Active | – | – | Not Active | Not Active | Not Active | – | – | –
10 | CN[C@@H]1[C@@H](O)[C@@H](O[C@@H]2[C@@H](O)[C@H](O[C@H]3OC(CN)=CC[C@H]3N)[C@@H](N)C[C@H]2N)OC[C@]1(C)O [SISOMICIN] | – | – | – | – | – | – | Not Active | Not Active | Not Active | Not Active | – | – | – | – | Not Active | – | – | –
11 | C[C@]12Cc3c[nH]nc3C[C@@H]1CC[C@@H]1[C@@H]2CC[C@@]2(C)[C@H]1CC[C@]2(C)O [STANOZOLOL] | Not Active | Not Active | – | – | – | – | Not Active | Not Active | Not Active | Not Active | – | – | Not Active | Not Active | Not Active | – | – | –
12 | Cc1cc(NS(=O)(=O)c2ccc(N)cc2)no1 [SULFAMETHOXAZOLE] | – | – | – | – | – | – | Not Active | – | – | Not Active | – | – | – | – | Not Active | Not Active | – | –
13 | Nc1ccc(S(N)(=O)=O)cc1 [SULFANILAMIDE] | – | – | – | – | – | – | Not Active | – | – | Not Active | – | – | – | – | Not Active | Not Active | – | –
14 | CC(C)(C)NCC(O)c1cc(O)cc(O)c1 (stereo not drawn) [TERBUTALINE] | Not Active | Not Active | Not Active | Not Active | Not Active | Not Active | Not Active | Not Active | Not Active | Not Active | – | – | Not Active | Not Active | – | – | – | –
15 | CN(C)[C@@H]1C(O)=C(C(N)=O)C(=O)[C@@]2(O)C(O)=C3C(=O)c4c(O)cccc4[C@@](C)(O)[C@H]3C[C@@H]12 [TETRACYCLINE] | – | – | Not Active | Not Active | – | – | Not Active | Not Active | Not Active | Not Active | – | – | Not Active | Not Active | Not Active | Not Active | – | –
16 | CN1[C@@H]2CC[C@H]1C[C@@H](OC(=O)c1c[nH]c3ccccc13)C2 [TROPISETRON] | Not Active | Not Active | Not Active | Not Active | Not Active | Not Active | Not Active | Not Active | Not Active | Not Active | – | – | Not Active | Not Active | – | Not Active | – | –
17 | COc1ccc(C(CN(C)C)C2(O)CCCCC2)cc1 (stereo not drawn) [VENLAFAXINE] | Not Active | Not Active | Not Active | Not Active | Not Active | Not Active | Not Active | Not Active | Not Active | – | – | – | Not Active | Not Active | – | – | – | –
